# Laboratory results taken from patent US6034134A, “1-Amino-alkylcyclohexane NMDA receptor antagonists” (Merz + Co. GmbH & Co., priority 1998, dated 2000).
# Structures can show the parent of a compound that is named as a salt.
# Legend:
# [1] = Rotarod test (motor coordination, ataxia) in mice, therapeutic index versus MES; type: in vivo; conditions: mouse, in vivo, ip; ED50 for rotarod failure divided by ED50 for MES; read-out: TI Rot.
# Protocol: All compounds were dissolved in 0.9% saline.
# (§1) The MES test was performed together with tests for myorelaxant action (traction reflex) and motor coordination (rotarod). For the traction reflex test mice were placed with their forepaws on a horizontal rod and were required to place all 4 paws on the wire within 10 seconds. To test ataxia (motor coordination) mice were placed on rotarod (5 rpm) and were required to remain on the rod for 1 minute. […] These tests were followed by MES (100 Hz, 0.5 second shock duration, 50 mA shock intensity, 0.9 ms impulse duration, Ugo Basile) applied through corneal electrodes. The presence of tonic convulsions was scored (tonic extension of hind paws with minimum angle to the body of 90°). The aim was to obtain ED50 s for all parameters scored (anticonvulsive activity and motor side effects) with use of the Litchfield Wilcoxon test for quantal dose responses. Division of the ED50 for side effects (ataxia or myorelaxation) by the ED50 for antagonism of electroshock convulsions was used as a therapeutic index (TI).
# (§2) IC50 s in patch clamp, excitotoxicity, and binding studies were calculated according to the four parameter logistic equation using the Grafit computer program (Erithacus Software, England). Ki value for binding studies were then determined according to Cheng and Prusoff. […] Pearson product moment correlation analysis (Sigma Stat, Jandel Scientific) was used to compare in vitro potencies and in vivo anticonvulsant activity.
# NMDA receptor = assay: [3H]-(+)-MK-801 binding to rat cortical membranes; conditions: for Ki: read-out: MK-801 Ki, Table 9, Cheng-Prusoff with Kd for MK-801 of […]; for IC50: read-out: [3H] MK-801 IC50, Table 7, footnote calls the values Ki
# Protocol: Male Sprague-Dawley rats (200-250 g) were decapitated and their brains were removed rapidly. The cortex was dissected and homogenized in 20 volumes of ice-cold 0.32 M sucrose using a glass-Teflon homogenizer. The homogenate was centrifuged at 1000 ×g for 10 minutes. The pellet was discarded and the supernatant centrifuged at 20,000 ×g for 20 minutes. The resulting pellet was re-suspended in 20 volumes of distilled water and centrifuged for 20 minutes at 8000 ×g. Then the supernatant and the buffy coat were centrifuged three times (48,000 ×g for 20 minutes) in the presence of 50 mM Tris-HCl, pH 8.0. All centrifugation steps were carried out at 4° C. After resuspension in 5 volumes of 50 mM Tris-HCl, pH 8.0 the membrane suspension was frozen rapidly at -80° C. On the day of assay the membranes were thawed and washed four times by resuspension in 50 mM Tris-HCl, pH 8.0 and centrifugation at 48,000 ×g for 20 minutes. The final pellet was suspended in assay buffer. The amount of protein in the final membrane preparation was determined according to the method of Lowry with some modifications. The final protein concentration used for our studies was between 250-500 μg/ml.
# Membranes were re-suspended and incubated in 50 mM Tris-HCl, pH 8.0. […] Incubations were terminated using a Millipore filter system. The samples were rinsed three times with 2.5 ml ice cold assay buffer over glass fiber filters obtained from Schleicher & Schuell under a constant vacuum. Filtration was performed as rapidly as possible. Following separation and rinse, the filters were placed into scintillation liquid (5 ml; Ultima Gold) and radio activity retained on the filters was determined with a conventional liquid scintillation counter (Hewlett Packard, Liquid Scintillation Analyser).
# as §2, with “Prusoff. Binding values presented are means±SEM of 3-5 determinations (each performed in duplicate).” for “Prusoff.”
# [2] = Traction reflex test (myorelaxant action) in mice, therapeutic index versus MES; type: in vivo; conditions: ED50 for traction reflex impairment divided by ED50 for MES; for selectivity ratio at 0.5 h: mouse, in vivo, ip, read-out: TI Tract
# Protocol: NMR female mice (18-28 g) housed 5 per cage were used for the maximal electroshock (MES) and motor impairment tests. […] All compounds were dissolved in 0.9% saline.
# as §1, with “(TI). […]” for “(TI).”
# [3] = Solubility (analytical certificates); type: physicochemical
# [4] = human, in vivo; cited from earlier work
# PTZ-induced convulsions = type: in vivo, mice; conditions: Mus musculus, ip; read-out: ED50 in the PTZ test
# NMDA-induced convulsions = type: in vivo, mice; conditions: Mus musculus, ip; read-out: ED50 in the NMDA test
SMILES,selectivity ratio at 0.5 h [1],Ki (NMDA receptor),selectivity ratio at 0.5 h [2],Solubility [3],side effects in humans [4],IC50 (NMDA receptor),ED50 (PTZ-induced convulsions),TI Tract ([2]; 30 min),ED50 (NMDA-induced convulsions)
"CC[C@H]1CC(C)(C)C[C@@](C)(N)C1 [MRZ 2/683, (1S, 5S) cis-3-Ethyl-1,5,5-trimethylcyclohexylamine hydrochloride hydrate]",3.5,4.44 µM,2.7,"soluble in chloroform, poor soluble in water",,,,,
"CC12CC3CC(C)(C1)CC(N)(C3)C2 [Memantine, reference compound]",2.5,2.45 µM,2.9,,rarely produce side effects at the therapeutic doses,0.7 µM,,,
"CC1(C)CC(C)(C)CC(C)(N)C1 [Mrz 2/579, 1-amino-1,3,3,5,5-pentamethylcyclohexane]",,1.47 µM,,,,1.9 µM,5.5 mg/kg,2.9,3.7 mg/kg
